Assay results: PubChem BioAssay (NCI)
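Results reflect a 48-hour exposure of cells in 96-well plates to compound at five concentrations. Abbreviation: GI50, concentration required for 50% inhibition of growth. TGI is the concentration that stops growth completely.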

What follows are compounds tested on EKVX NSCLC (assay: inhibition of tumour cell growth, NCI panel, 48 h).

Q: How did the TGI turn out when `CC1=C(C(=O)OCCO[N+](=O)[O-])C(c2cccc([N+](=O)[O-])c2)C(C(=O)OC(C)C)=C(C)N1` (stereo unspecified) was run?
A: The TGI was 48.9 µM.

Q: With `CS(=O)(=O)OCCCCOS(=O)(=O)CF` as the compound, how does the TGI read?
A: Its TGI is > 100 µM.

These compounds were tested on NCI-H460 lung (assay: inhibition of tumour cell growth, NCI panel, 48 h).

Q: With `NC(N)=Nc1ccc(-c2ccc(N=C(N)N)cc2)cc1` as the compound, how does the TGI read?
A: Its TGI is > 100 µM.

Q: For `O=C1c2cccnc2-c2nc(-c3ccccc3[N+](=O)[O-])cc3c2c1nc1ccccc13`, which GI50 is on record?
A: Its GI50 is 12 µM.

Q: What about the TGI of the same compound?
A: Its TGI is 33.8 µM.

Q: With `CC(C)(C)c1cc(C(=O)/C=C/c2c(Cl)cccc2Cl)cc(C(C)(C)C)c1O` as the compound, how does the TGI read?
A: The TGI was 24 µM.

Q: Which TGI does the source give for `O=[N+]([O-])C(=C(Cl)Cl)C(Cl)=C(Cl)Cl` here?
A: The TGI was 5.21 µM.

Q: How did the TGI turn out when `CC1=C(C(=O)OCCO[N+](=O)[O-])C(c2cccc([N+](=O)[O-])c2)C(C(=O)OC(C)C)=C(C)N1` (stereo unspecified) was run?
A: Its TGI is 34.4 µM.

Q: Which TGI does the source give for `CS(=O)(=O)OCCCCOS(=O)(=O)CF` here?
A: Its TGI is > 100 µM.

What follows are compounds tested on NCI-H226 lung (assay: inhibition of tumour cell growth, NCI panel, 48 h).

Q: How did the TGI turn out when `NC(N)=Nc1ccc(-c2ccc(N=C(N)N)cc2)cc1` was run?
A: The TGI was 65.4 µM.

Q: `O=C1c2cccnc2-c2nc(-c3ccccc3[N+](=O)[O-])cc3c2c1nc1ccccc13` was tested. Which GI50 did it give?
A: The GI50 was > 100 µM.

Q: What about the TGI of the same compound?
A: The TGI was > 100 µM.

Q: Which TGI does the source give for `CC(C)(C)c1cc(C(=O)/C=C/c2c(Cl)cccc2Cl)cc(C(C)(C)C)c1O` here?
A: Its TGI is 35.2 µM.

Q: For `O=[N+]([O-])C(=C(Cl)Cl)C(Cl)=C(Cl)Cl`, which TGI is on record?
A: The TGI was 3.53 µM.

Q: How did the TGI turn out when `CC1=C(C(=O)OCCO[N+](=O)[O-])C(c2cccc([N+](=O)[O-])c2)C(C(=O)OC(C)C)=C(C)N1` (stereo unspecified) was run?
A: Its TGI is 28.2 µM.

Q: `CS(=O)(=O)OCCCCOS(=O)(=O)CF` was tested. Which TGI did it give?
A: The TGI was > 100 µM.

The compounds below were run on OVCAR-5 ovarian (assay: inhibition of tumour cell growth, NCI panel, 48 h).

Q: With `NC(N)=Nc1ccc(-c2ccc(N=C(N)N)cc2)cc1` as the compound, how does the TGI read?
A: Its TGI is 81.3 µM.

Q: With `O=C1c2cccnc2-c2nc(-c3ccccc3[N+](=O)[O-])cc3c2c1nc1ccccc13` as the compound, how does the GI50 read?
A: The GI50 was 6.99 µM.

Q: What about the TGI of the same compound?
A: Its TGI is 33.4 µM.

Q: `CC(C)(C)c1cc(C(=O)/C=C/c2c(Cl)cccc2Cl)cc(C(C)(C)C)c1O` was tested. Which TGI did it give?
A: Its TGI is 35 µM.

Q: For `O=[N+]([O-])C(=C(Cl)Cl)C(Cl)=C(Cl)Cl`, which TGI is on record?
A: Its TGI is 3.94 µM.

Q: With `CC1=C(C(=O)OCCO[N+](=O)[O-])C(c2cccc([N+](=O)[O-])c2)C(C(=O)OC(C)C)=C(C)N1` (stereo unspecified) as the compound, how does the TGI read?
A: Its TGI is 30.4 µM.

Q: For `CS(=O)(=O)OCCCCOS(=O)(=O)CF`, which TGI is on record?
A: The TGI was > 100 µM.

Each compound was assayed on LOX IMVI melanoma (assay: inhibition of tumour cell growth, NCI panel, 48 h).

Q: For `NC(N)=Nc1ccc(-c2ccc(N=C(N)N)cc2)cc1`, which TGI is on record?
A: Its TGI is > 100 µM.

Q: With `O=C1c2cccnc2-c2nc(-c3ccccc3[N+](=O)[O-])cc3c2c1nc1ccccc13` as the compound, how does the GI50 read?
A: Its GI50 is 2.84 µM.

Q: And the TGI?
A: The TGI was 13.7 µM.

Q: With `CC(C)(C)c1cc(C(=O)/C=C/c2c(Cl)cccc2Cl)cc(C(C)(C)C)c1O` as the compound, how does the TGI read?
A: Its TGI is 28.3 µM.

Q: Which TGI does the source give for `O=[N+]([O-])C(=C(Cl)Cl)C(Cl)=C(Cl)Cl` here?
A: Its TGI is 0.0351 µM.

Q: For `CC1=C(C(=O)OCCO[N+](=O)[O-])C(c2cccc([N+](=O)[O-])c2)C(C(=O)OC(C)C)=C(C)N1` (stereo unspecified), which TGI is on record?
A: The TGI was 31.6 µM.

Q: Which TGI does the source give for `CS(=O)(=O)OCCCCOS(=O)(=O)CF` here?
A: The TGI was > 100 µM.

Each compound was assayed on CAKI-1 renal (assay: inhibition of tumour cell growth, NCI panel, 48 h).

Q: For `NC(N)=Nc1ccc(-c2ccc(N=C(N)N)cc2)cc1`, which TGI is on record?
A: The TGI was > 100 µM.

Q: Which GI50 does the source give for `O=C1c2cccnc2-c2nc(-c3ccccc3[N+](=O)[O-])cc3c2c1nc1ccccc13` here?
A: The GI50 was 18 µM.

Q: What about the TGI of the same compound?
A: The TGI was 43.3 µM.

Q: For `CC(C)(C)c1cc(C(=O)/C=C/c2c(Cl)cccc2Cl)cc(C(C)(C)C)c1O`, which TGI is on record?
A: The TGI was 54.9 µM.

Q: Which TGI does the source give for `O=[N+]([O-])C(=C(Cl)Cl)C(Cl)=C(Cl)Cl` here?
A: Its TGI is 0.699 µM.

Q: With `CC1=C(C(=O)OCCO[N+](=O)[O-])C(c2cccc([N+](=O)[O-])c2)C(C(=O)OC(C)C)=C(C)N1` (stereo unspecified) as the compound, how does the TGI read?
A: Its TGI is 95.7 µM.

Q: With `CS(=O)(=O)OCCCCOS(=O)(=O)CF` as the compound, how does the TGI read?
A: Its TGI is > 100 µM.

These compounds were tested on HL-60(TB) leukemia (assay: inhibition of tumour cell growth, NCI panel, 48 h).

Q: Which TGI does the source give for `NC(N)=Nc1ccc(-c2ccc(N=C(N)N)cc2)cc1` here?
A: Its TGI is > 100 µM.

Q: With `O=C1c2cccnc2-c2nc(-c3ccccc3[N+](=O)[O-])cc3c2c1nc1ccccc13` as the compound, how does the GI50 read?
A: Its GI50 is > 100 µM.

Q: And the TGI?
A: The TGI was > 100 µM.

Q: For `CC(C)(C)c1cc(C(=O)/C=C/c2c(Cl)cccc2Cl)cc(C(C)(C)C)c1O`, which TGI is on record?
A: The TGI was 25.9 µM.

Q: For `O=[N+]([O-])C(=C(Cl)Cl)C(Cl)=C(Cl)Cl`, which TGI is on record?
A: The TGI was 0.0573 µM.

Q: For `CC1=C(C(=O)OCCO[N+](=O)[O-])C(c2cccc([N+](=O)[O-])c2)C(C(=O)OC(C)C)=C(C)N1` (stereo unspecified), which TGI is on record?
A: Its TGI is > 100 µM.

Q: For `CS(=O)(=O)OCCCCOS(=O)(=O)CF`, which TGI is on record?
A: The TGI was > 100 µM.

The compounds below were run on A498 renal (assay: inhibition of tumour cell growth, NCI panel, 48 h).

Q: With `NC(N)=Nc1ccc(-c2ccc(N=C(N)N)cc2)cc1` as the compound, how does the TGI read?
A: Its TGI is > 100 µM.

Q: For `O=C1c2cccnc2-c2nc(-c3ccccc3[N+](=O)[O-])cc3c2c1nc1ccccc13`, which GI50 is on record?
A: Its GI50 is > 77.3 µM.

Q: What about the TGI of the same compound?
A: Its TGI is > 100 µM.

Q: Which TGI does the source give for `CC(C)(C)c1cc(C(=O)/C=C/c2c(Cl)cccc2Cl)cc(C(C)(C)C)c1O` here?
A: Its TGI is > 100 µM.

Q: With `O=[N+]([O-])C(=C(Cl)Cl)C(Cl)=C(Cl)Cl` as the compound, how does the TGI read?
A: Its TGI is 14.9 µM.

Q: How did the TGI turn out when `CC1=C(C(=O)OCCO[N+](=O)[O-])C(c2cccc([N+](=O)[O-])c2)C(C(=O)OC(C)C)=C(C)N1` (stereo unspecified) was run?
A: Its TGI is 46.8 µM.

Q: With `CS(=O)(=O)OCCCCOS(=O)(=O)CF` as the compound, how does the TGI read?
A: Its TGI is > 100 µM.
